The results in this text go back to ChEMBL document CHEMBL6127140, “Bicyclic Ureas as JAK2 Inhibitors for Treating Hematological Cancer” (ACS Med Chem Lett, 2024).

Structures are written as SMILES.

The experiment can be described thus: Binding affinity to C-terminal his-Avi-tagged human JAK2 JH-2 domain (536 to 812 residues) W659A/W777A/F794H mutant expressed in baculovirus expression system incubated for 1 hr in presence of JAK2 JH2 tracer and ATP by Lanthascreen assay.
In the case of `COC(=O)N[C@@H]1CC[C@@H](n2c(=O)n(C)c3cnc(Nc4ccnc(N5CCCCC5)n4)cc32)C1`, the IC50 is not above 10 nM.

As for `COC(=O)N[C@@H]1CC[C@@H](n2c(=O)n(C)c3cnc(Nc4cccc(-c5ccc6[nH]nc(C)c6c5)n4)cc32)C1`, the IC50 is not above 10 nM.

`COC(=O)N[C@@H]1CC[C@@H](n2c(=O)n(C)c3cnc(Nc4cccc(-c5ccc6c(c5)OCCO6)n4)cc32)C1`: the 50% inhibitory concentration (IC50) was not above 10 nM.

`COC(=O)N[C@@H]1CC[C@@H](n2c(=O)n(C)c3cnc(Nc4ccc(F)c(-c5ccc(C6CC6)cc5)n4)cc32)C1`: the IC50 was not above 10 nM.

As to `COC(=O)N[C@@H]1CC[C@@H](n2c(=O)n(C)c3cnc(Nc4cccc(-c5ccc(OC)nc5)n4)cc32)C1`, the IC50 is not above 10 nM.

`COC(=O)N[C@@H]1CC[C@@H](n2c(=O)n(C)c3cnc(Nc4cc(C)nc(N5CCC(F)(F)C5)n4)cc32)C1`: the IC50 is not above 10 nM.
